Holding throughout (assay type): cell-based
The target of assay [1] is T1, human S1PR4 (Homo sapiens, UniProt O95977).
T1 construct: host or cells: CHO-K1
T1 sequence (O95977 1-384): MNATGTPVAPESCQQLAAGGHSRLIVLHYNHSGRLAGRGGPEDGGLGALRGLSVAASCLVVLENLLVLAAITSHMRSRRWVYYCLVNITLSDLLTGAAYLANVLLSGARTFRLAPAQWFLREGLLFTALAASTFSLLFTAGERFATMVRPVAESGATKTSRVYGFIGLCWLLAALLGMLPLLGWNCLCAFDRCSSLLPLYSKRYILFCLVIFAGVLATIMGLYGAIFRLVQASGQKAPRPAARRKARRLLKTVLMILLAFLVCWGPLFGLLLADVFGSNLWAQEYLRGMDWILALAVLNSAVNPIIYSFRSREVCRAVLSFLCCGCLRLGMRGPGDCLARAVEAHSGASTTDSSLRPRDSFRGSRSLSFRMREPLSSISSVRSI
Briefly: Intracellular Ca2+ release (FLIPR) agonist potency, S1P4. The method, boiled down: (§1)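 CHO-K1 cells expressing the human receptor, aequorin and Gq/i5 were used; Ca²⁺ release read on FLIPR. EC50 derived from nonlinear fit of fluorescence data normalized to the phospho-fingolimod reference curve.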

The target of assay [2] is T2, human S1PR1 (Homo sapiens, UniProt P21453).
T2 construct: host or cells: CHO-K1
Briefly: Intracellular Ca2+ release (FLIPR) agonist potency, S1P1. The method, boiled down:
as §1

Assay [3] has as its target T3, human S1PR3 (Homo sapiens, UniProt Q99500).
T3 construct: host or cells: CHO-K1
Description: Intracellular Ca2+ release (FLIPR) agonist potency, S1P3. The method, boiled down: as §1

The target of assay [4] is T4, human S1PR5 (Homo sapiens, UniProt Q9H228).
T4 construct: host or cells: CHO-K1
Briefly: Intracellular Ca2+ release (FLIPR) agonist potency, S1P5. A digest of the protocol:
as §1

Where [5] appears, read: recombinant CHO-K1 cells expressing human S1PR4, aequorin, Gq/i5, Calcium 5 FLIPR, read-out: S1P4 EC50.
[6] abbreviates: recombinant CHO-K1 cells expressing human S1PR1, aequorin, Gq/i5, Calcium 5 FLIPR, read-out: S1P1 EC50.
Setting [7] is: recombinant CHO-K1 cells expressing human S1PR3, aequorin, Gq/i5, Calcium 5 FLIPR, read-out: S1P3 EC50.
Setting [8] is: recombinant CHO-K1 cells expressing human S1PR5, aequorin, Gq/i5, Calcium 5 FLIPR, read-out: S1P5 EC50 range.

Experimental findings from patent US10280159B2 (AbbVie Deutschland GmbH & Co. KG, priority 2015, dated 2019) are described below.

Structures can show the parent of a compound that is named as a salt. Where two headings read alike, the source gives them in different places.

T2 sequence (P21453 whole entry): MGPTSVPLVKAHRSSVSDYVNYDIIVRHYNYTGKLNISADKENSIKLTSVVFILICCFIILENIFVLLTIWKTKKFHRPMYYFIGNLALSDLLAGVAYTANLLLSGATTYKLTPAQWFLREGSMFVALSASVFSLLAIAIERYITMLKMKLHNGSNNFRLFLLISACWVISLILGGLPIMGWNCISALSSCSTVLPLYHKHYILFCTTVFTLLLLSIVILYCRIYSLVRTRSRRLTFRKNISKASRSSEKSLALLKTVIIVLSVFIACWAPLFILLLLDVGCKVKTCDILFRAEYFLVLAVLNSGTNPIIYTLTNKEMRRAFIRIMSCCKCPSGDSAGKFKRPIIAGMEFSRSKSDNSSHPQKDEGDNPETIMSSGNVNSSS
T4 sequence (Q9H228 whole entry): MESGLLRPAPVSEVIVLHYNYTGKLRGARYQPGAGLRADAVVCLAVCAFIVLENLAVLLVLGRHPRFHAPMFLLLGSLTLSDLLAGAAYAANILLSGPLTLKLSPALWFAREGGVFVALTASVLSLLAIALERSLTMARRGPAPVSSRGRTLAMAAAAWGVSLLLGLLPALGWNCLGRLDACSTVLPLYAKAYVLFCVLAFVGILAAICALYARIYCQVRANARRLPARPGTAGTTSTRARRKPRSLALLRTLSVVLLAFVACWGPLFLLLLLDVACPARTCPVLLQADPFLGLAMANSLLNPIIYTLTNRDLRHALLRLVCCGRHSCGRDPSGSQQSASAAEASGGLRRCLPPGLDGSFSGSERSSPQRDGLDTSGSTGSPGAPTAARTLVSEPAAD
T3 sequence (Q99500 whole entry): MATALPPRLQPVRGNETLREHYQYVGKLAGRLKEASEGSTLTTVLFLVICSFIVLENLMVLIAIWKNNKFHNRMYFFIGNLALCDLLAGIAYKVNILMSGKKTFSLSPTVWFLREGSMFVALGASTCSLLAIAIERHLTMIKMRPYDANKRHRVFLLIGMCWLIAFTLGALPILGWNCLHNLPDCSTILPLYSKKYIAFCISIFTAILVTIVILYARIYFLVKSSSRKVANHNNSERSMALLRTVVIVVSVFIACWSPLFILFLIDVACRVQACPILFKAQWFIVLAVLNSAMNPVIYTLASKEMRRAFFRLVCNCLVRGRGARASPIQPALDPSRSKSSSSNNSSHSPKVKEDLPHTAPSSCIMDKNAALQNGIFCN

The term EC50 denotes the concentration that produces a half-maximal response. For the compound `O=C(O)C1CCN(CC2OCCc3cc(OCc4c(Cl)cccc4Cl)ccc32)CC1` (centres unmarked) [Compound 70, 1-((6-((2,6-dichlorobenzyl)oxy)isochroman-1-yl)methyl)piperidine-4-carboxylic acid], the EC50 in assay [1] (setting [5]) is < 1 µM; in assay [2] (setting [6]), > 1 µM; in assay [3] (setting [7]) it was > 1 µM; in assay [4] (setting [8]), 0.01 to 0.1 µM.

Take `CCc1cccc(Cl)c1COc1ccc2c(c1)CCC(NCC(=O)O)C2` (centres unmarked) [Compound 73, 2-((6-((2-chloro-6-ethylbenzyl)oxy)-1,2,3,4-tetrahydronaphthalen-2-yl)amino)acetic acid]: the EC50 is < 1 µM in assay [1] (setting [5]), < 1 µM in assay [2] (setting [6]), > 1 µM in assay [3] (setting [7]) and < 0.01 µM in assay [4] (setting [8]).

Take `O=C(O)C1CCN(C2CCc3cc(OCc4c(Cl)cccc4Cl)ccc3C2)C1` (centres unmarked) [Compound 74, 1-(6-((2,6-dichlorobenzyl)oxy)-1,2,3,4-tetrahydronaphthalen-2-yl)pyrrolidine-3-carboxylic acid]: the EC50 in assay [1] (setting [5]) was < 1 µM; in assay [2] (setting [6]), > 1 µM; in assay [3] (setting [7]), > 1 µM; in assay [4] (setting [8]), < 0.01 µM.

Turning to `O=C(O)CNC1CCc2cc(OCc3c(Cl)cccc3Cl)ccc2C1` (centres unmarked) [Compound 75, 2-((6-((2,6-dichlorobenzyl)oxy)-1,2,3,4-tetrahydronaphthalen-2-yl)amino)acetic acid], the EC50 is < 1 µM in assay [1] (setting [5]), > 1 µM in assay [2] (setting [6]), > 1 µM in assay [3] (setting [7]) and < 0.01 µM in assay [4] (setting [8]).

Take `O=C(O)[C@H]1C[C@@H](NC2CCc3cc(OCc4c(Cl)cccc4Cl)ccc3C2)C1` (some centres unmarked) [Compound 77, (1 s,3s)-3-((6-((2,6-dichlorobenzyl)oxy)-1,2,3,4-tetrahydronaphthalen-2-yl)amino)cyclobutanecarboxylic acid]: the EC50 is < 1 µM in assay [1] (setting [5]), < 1 µM in assay [2] (setting [6]), > 1 µM in assay [3] (setting [7]) and < 0.01 µM in assay [4] (setting [8]).

Turning to `O=C(O)CC1CN(C2CCc3cc(OCc4c(Cl)cccc4Cl)ccc3C2)C1` (centres unmarked) [Compound 78, 2-(1-(6-((2,6-dichlorobenzyl)oxy)-1,2,3,4-tetrahydronaphthalen-2-yl)azetidin-3-yl)acetic acid], the EC50 in assay [1] (setting [5]) is < 1 µM; in assay [2] (setting [6]), > 1 µM; in assay [3] (setting [7]), > 1 µM; in assay [4] (setting [8]), < 0.01 µM.

Consider `O=C(O)[C@H]1C[C@H](NC2CCc3cc(OCc4c(Cl)cccc4Cl)ccc3C2)C1` (some centres unmarked) [Compound 79, (1r,3r)-3-((6-((2,6-dichlorobenzyl)oxy)-1,2,3,4-tetrahydronaphthalen-2-yl)amino)cyclobutanecarboxylic acid], for which the EC50 is < 1 µM in assay [1] (setting [5]), < 1 µM in assay [2] (setting [6]), > 1 µM in assay [3] (setting [7]) and < 0.01 µM in assay [4] (setting [8]).

In the case of `O=C(O)CC1CCN(C2CCc3cc(OCc4c(Cl)cccc4Cl)ccc3C2)C1` (centres unmarked) [Compound 80, 2-(1-(6-((2,6-dichlorobenzyl)oxy)-1,2,3,4-tetrahydronaphthalen-2-yl)pyrrolidin-3-yl)acetic acid], the EC50 is < 1 µM in assay [1] (setting [5]), > 1 µM in assay [2] (setting [6]), > 1 µM in assay [3] (setting [7]) and 0.01 to 0.1 µM in assay [4] (setting [8]).

For the compound `O=C(O)C1CN(C2COc3cc(CCc4cc(F)cc(F)c4)ccc3C2)C1` (centres unmarked) [Compound 81, 1-(7-(3,5-difluorophenethyl)chroman-3-yl)azetidine-3-carboxylic acid], the EC50 is > 1 µM in assay [1] (setting [5]), > 1 µM in assay [2] (setting [6]), > 1 µM in assay [3] (setting [7]) and 1 to 10 µM in assay [4] (setting [8]).

As for `CCc1cccc(Cl)c1COc1ccc2c(c1)CCC1C2OCCN1CCC(=O)O` (centres unmarked) [Compound 82, 3-(8-((2-chloro-6-ethylbenzyl)oxy)-5,6-dihydro-2H-naphtho[1,2-b][1,4]oxazin-4(3H,4aH,10bH)-yl)propanoic acid hydrochloride], the EC50 in assay [1] (setting [5]) is < 1 µM; in assay [2] (setting [6]), < 1 µM; in assay [3] (setting [7]), > 1 µM; in assay [4] (setting [8]), < 0.01 µM.

Take `O=C(O)COC1CCc2cc(OCc3c(F)ccc(Cl)c3F)ccc2C1` (centres unmarked) [Compound 152, 2-[6-[(3-chloro-2,6-difluoro-phenyl)methoxy]tetralin-2-yl]oxyacetic acid]: the EC50 is > 1 µM in assay [1] (setting [5]), > 1 µM in assay [2] (setting [6]), > 1 µM in assay [3] (setting [7]) and < 0.01 µM in assay [4] (setting [8]).

Regarding `O=C(O)COC1CCc2cc(OCc3cc(OC(F)(F)F)ccc3F)ccc2C1` (centres unmarked) [Compound 161, 2-[6-[[2-fluoro-5-(trifluoromethoxy)phenyl]methoxy]tetralin-2-yl]oxyacetic acid], the EC50 in assay [1] (setting [5]) was > 1 µM; in assay [2] (setting [6]), > 1 µM; in assay [3] (setting [7]), > 1 µM; in assay [4] (setting [8]) it was 0.01 to 0.1 µM.

On to `O=C(O)COC1CCc2cc(OCc3c(Cl)cccc3C(F)(F)F)ccc2C1` (centres unmarked) [Compound 167, 2-[6-[[2-chloro-6-(trifluoromethyl)phenyl]methoxy]tetralin-2-yl]oxyacetic acid], for which the EC50 in assay [1] (setting [5]) is > 1 µM; in assay [2] (setting [6]), > 1 µM; in assay [3] (setting [7]), > 1 µM; in assay [4] (setting [8]), < 0.01 µM.

As to `O=C(O)COC1CCc2cc(OCc3cc(F)ccc3C(F)(F)F)ccc2C1` (centres unmarked) [Compound 168, 2-[6-[[5-fluoro-2-(trifluoromethyl)phenyl]methoxy]tetralin-2-yl]oxyacetic acid], the 50% effective concentration (EC50) in assay [1] (setting [5]) is < 1 µM; in assay [2] (setting [6]), > 1 µM; in assay [3] (setting [7]), > 1 µM; in assay [4] (setting [8]), < 0.01 µM.

With `Cc1cccc(C)c1COc1ccc2c(c1)CCC(OCC(=O)O)C2` (centres unmarked) [Compound 175, 2-[6-[(2,6-dimethylphenyl)methoxy]tetralin-2-yl]oxyacetic acid], the EC50 is > 1 µM in assay [1] (setting [5]), > 1 µM in assay [2] (setting [6]), > 1 µM in assay [3] (setting [7]) and 0.01 to 0.1 µM in assay [4] (setting [8]).

Consider `O=C(O)COC1CCc2cc(OCc3c(Cl)cccc3Cl)ccc2C1` (centres unmarked) [Compound 210, 2-[6-[(2,6-dichlorophenyl)methoxy]tetralin-2-yl]oxyacetic acid], for which the EC50 in assay [1] (setting [5]) was > 1 µM; in assay [2] (setting [6]), > 1 µM; in assay [3] (setting [7]), > 1 µM; in assay [4] (setting [8]) it was 0.1 to 1 µM.

In the case of `CC(C)(C)c1ccc(COc2ccc3c(c2)CCC(OCC(=O)O)C3)cc1` (centres unmarked) [Compound 211, 2-[6-[(4-tert-butylphenyl)methoxy]tetralin-2-yl]oxyacetic acid], the concentration for a half-maximal effect (EC50) in assay [1] (setting [5]) was > 1 µM; in assay [2] (setting [6]) it was > 1 µM; in assay [3] (setting [7]), > 1 µM; in assay [4] (setting [8]), 0.01 to 0.1 µM.

As for `O=C(O)COC1CCc2cc(OCc3cccc(C(F)(F)F)c3)ccc2C1` (centres unmarked) [Compound 213, 2-[6-[[3-(trifluoromethyl)phenyl]methoxy]tetralin-2-yl]oxyacetic acid], the EC50 in assay [1] (setting [5]) was < 1 µM; in assay [2] (setting [6]), > 1 µM; in assay [3] (setting [7]), > 1 µM; in assay [4] (setting [8]) it was 0.01 to 0.1 µM.

In the case of `CCc1cccc(Cl)c1COc1ccc2c(c1)CCC(NCC(=O)N(C)OC)C2` (centres unmarked) [Compound 216, 2-[[6-[(2-chloro-6-ethyl-phenyl)methoxy]tetralin-2-yl]amino]-N-methoxy-N-methyl-acetamide], the EC50 in assay [1] (setting [5]) was > 1 µM; in assay [2] (setting [6]) it was > 1 µM; in assay [3] (setting [7]), > 1 µM; in assay [4] (setting [8]) it was < 0.01 µM.

In the case of `CCc1cccc(Cl)c1COc1ccc2c(c1)CCC(NCC(=O)NOC)C2` (centres unmarked) [Compound 218, 2-[[6-[(2-chloro-6-ethyl-phenyl)methoxy]tetralin-2-yl]amino]-N-methoxy-acetamide], the EC50 in assay [1] (setting [5]) is > 1 µM; in assay [2] (setting [6]) it was > 1 µM; in assay [3] (setting [7]), > 1 µM; in assay [4] (setting [8]) it was 0.1 to 1 µM.

For the compound `CCc1cccc(Cl)c1COc1ccc2c(c1)CCC(NCc1cc(=O)[nH]o1)C2` (centres unmarked) [Compound 220, 5-[[[6-[(2-chloro-6-ethyl-phenyl)methoxy]tetralin-2-yl]amino]methyl]isoxazol-3-one], the EC50 in assay [1] is < 1 µM; in assay [2], < 1 µM; in assay [3] it was > 1 µM; in assay [4] (S1P5 EC50 range) it was < 0.01 µM.

Take `CCc1cccc(Cl)c1COc1ccc2c(c1)CCC(NCC(=O)NO)C2` (centres unmarked) [Compound 236, 2-((6-((2-chloro-6-ethylbenzyl)oxy)-1,2,3,4-tetrahydronaphthalen-2-yl)amino)acetohydroxamic acid]: the EC50 in assay [1] (setting [5]) is < 1 µM; in assay [2] (setting [6]), > 1 µM; in assay [3] (setting [7]), > 1 µM; in assay [4] (setting [8]), < 0.01 µM.

As to `CN(CC(=O)O)C1COc2cc(-c3ccc(OCc4ccccc4)cc3)ccc2C1` (centres unmarked) [Compound 238, 2-((7-(4-(benzyloxy)phenyl)chroman-3-yl)(methyl)amino)acetic acid], the EC50 is > 1 µM in assay [1] (setting [5]), < 1 µM in assay [2] (setting [6]), > 1 µM in assay [3] (setting [7]) and 0.01 to 0.1 µM in assay [4] (setting [8]).
